According to patent US9926354B2, “Amyloid precursor protein (APP) based Ã#-secretase inhibitor peptides, and methods of use” (UNIVERSITY OF SOUTH FLORIDA, priority 2014, dated 2018):
Several values for one entry are separate records, joined by “and”; a condition that tells them apart may be missing. Equal entries are not always repeated. No end group written: not given here.

Key:
γ-secretase = conditions: Phase 3; cited from earlier work
[1] = assay type: in vivo, mouse; conditions: biotin-labeled, 100 nM/kg i.p. daily for 5 days, 4 hours after last injection, 5XFAD mice
Procedure: In order to determine the BBB permeability of TAT-APPsweBBP, biotin-labeled TAT-APPsweBBP or APPsweBBP (100 nM/kg in 100 μl physiological saline) was intraperitoneally (i.p.) administered daily to 5XFAD mice at 2 months of age for 5 days (n=5, female). The mice were euthanized 4 hours after the last injection and then brain tissues were removed, sectioned and stained with anti-BACE1 and anti-biotin antibodies. Alexa Fluor® 594 donkey anti-rabbit IgG was used to detect the biotin signal and Alexa Fluor® 488 goat anti-mouse IgG was used to detect the BACE1 signal. All images were taken with an Olympus Fluoview FV1000 laser scanning confocal microscope. […] No noticeable differences in biotin distribution were observed between 5XFAD and WT control mice following either biotin-labeled TAT-APPsweBBP or APPsweBBP injection (data not shown).
The hypothesis that TAT-APPsweBBP would more effectively penetrate the BBB compared with APPsweBBP alone was initially tested. 5XFAD mice at 2 months of age (n=5, female) were treated with biotin-labeled TAT-APPsweBBP or APPsweBBP (100 nM/kg, i.p.) daily for 5 days and then euthanized 4 hours after the last injection. Brain tissues were removed, sectioned, and stained with anti-BACE1 and anti-biotin antibodies. […] This highlights the importance of the membrane fusion fragment of the HIV-1 Tat protein (TAT) for cerebral delivery of APPsweBBP.

5XFAD mice = experiment: WB of BACE1, ADAM10, ADAM17, Akt, phospho-Akt and MBP in brain homogenates of 5XFAD mice; assay type: in vivo, mouse; conditions: vs TAT and PBS
Procedure: 5XFAD Mice—Transgenic AD mice [5XFAD; B6SJL-Tg(APPSwF1Lon,PSEN1*M146L*L286V) 6799Vas/Mmjax] at 2.5 months of age were obtained from the Jackson Laboratory (Bar Harbor, Me., USA) and housed and maintained in the Animal Facility of College of Medicine at University of South Florida. The mice at 3.5 months of age were treated with TAT-APPsweBBP, TAT peptide (100 nM/kg in 100 μl PBS) or PBS (100 μl) intraperitioneally (i.p.) daily for eight consecutive weeks. The mice were subjected to behavioral testing after 8 week-treatment and euthanized for immunohistochemical, ELISA and WB analysis after completing behavioral tests. All experiments involving mice were in compliance with the U.S. Department of Health and Human Services Guide for the Care and Use of Laboratory Animals and in accordance with the guidelines of the USF Institutional Animal Care and Use Committee.
Western Blotting (WB) and Analysis—WB analysis was performed as previously described (Modi et al., 2013; Tung et al., 2002). Briefly, the proteins from the various cell-free, cell and brain lysates or homogenates were electrophoretically separated using 10% bicine/tris gel (8 M urea) for proteins less than 5 kD or 10% tricine/tris gels for larger proteins. […]
In addition to cognitive testing, neuronal APP proteolysis was also evaluated by ELISA and WB. […]

BACE1 [2] = target: T1, BACE1 (Homo sapiens, UniProt P56817); experiment: BACE1 activity assay (FRET, cell-free); assay type: biochemical; design: purchased Pan Vera Co., Madison, Wis., USA; conditions: for % of inhibition (mean ± SD) of BACE1: peptide final concentration 20 μM, 90 minutes, room temperature, 20 µM
Procedure: BACE1 Activity Assay—The BACE1 inhibiting activity of APP-based BACE1 site binding peptides were determined using a fluorescence resonance energy transfer (FRET) assay (Pan Vera Co., Madison, Wis., USA), which employs a recombinant baculovirus-expressed BACE1 and a specific substrate (Rh-[…]-quencher) that is based on the APPswe mutation. This specific peptide substrate becomes highly fluorescent upon enzymatic cleavage. A mixture of 10 μL of BACE1 (1.0 U/mL in 50 mM Tris, pH7.5, 10% glycerol), 10 μL of FRET-substrate, and 10 μL of the various APP-based BACE1 site binding peptides (final concentration 20 μM) were incubated for 90 minutes in the dark at room temperature. Then, 10 μL of BACE1 stop buffer (2.5 M sodium acetate) was added to the mixture. Fluorescence was read using a fluorometer, with excitation at 545 nm and emission at 585 nm.
As a required enzyme for the generation of neurotoxic Aβ from APP, BACE1 is well established as an important mediator of AD β-amyloid pathology. As such, it has become an important target for new disease modifying therapeutics. However, since BACE1 also has important physiological roles, abolishment of the enzyme or its activity may lead to deleterious side effects as evidenced by numerous failed clinical trials discussed previously. […] Since previous studies have established a close relationship between α-helix structure and peptide-protein (or protein-protein) interactions (Azzarito, 2013; Rao et al., 2013), several APP based peptides were synthesized that might serve as a preferable substrate for BACE1. Importantly, these peptides were free of the Aβ-containing segment and, thus, cannot be amyloidogenic. In theory, these could be used to “hijack” the BACE1 processing of endogenous APP and lead to a decrease in cerebral Aβ. These BACE1 substrates and controls were incubated with recombinant BACE1 and percent of inhibition of the enzyme was calculated. […] These findings indicate that the α-helical TAT fusion domain may help to promote selective APPsweBBP proteolysis by BACE1, yielding substrate competition against human wild-type APP.

[3] = system: CHO cells over-expressing human wild-type APP (CHO/APPwt); experiment: Aβ and sAPPα production in cultured media of CHO/APPwt cells by ELISA (24 hours); assay type: cell-based, Chinese hamster; conditions: 20 μg/mL
Procedure: (§1) Cell Culture—Chinese hamster ovary (CHO) cells engineered to express wild-type human APP (CHO/APPwt cells) or Swedish mutant human APP (CHO/APPswe cells) were kindly provided by Dr. Stefanie Hahn and Dr. Sascha Weggen (University of Heinrich Heine, Dusseldorf, Germany). As described previously (Obregon et al., 2012), these cells were cultured in Dulbecco's modified Eagle's medium (DMEM) with 10% fetal bovine serum (FBS), 1 mM sodium pyruvate, and 100 units/mL of penicillin and streptomycin.
To confirm the binding of APPsweBBP with BACE1, CHO/APPwt cells were plated in 8-well chambers (5×10^5/well), incubated with TAT-APPsweBBP-biotin or APPsweBBP-biotin at 20 μM for 30 minutes, fixed with 4% paraformaldehyde for 20 minutes, washed and permeabilized with 0.5% Triton X-100. Following application of blocking buffer, these cells were stained with mouse anti-BACE1 and rabbit anti-biotin antibodies overnight at 4° C. for immunocytochemistry analysis. […] The cultured media were collected for Aβ analysis by enzyme-linked immunosorbent assay (ELISA) and sAPPα analysis by ELISA and Western blot (WB). Cell lysates were also prepared for analysis of APP amyloidogenic processing by WB.
(§2) ELISA—Mouse brains were homogenized in ice-cold lysis buffer for 30 seconds using a Minilys tissue homogenizer (Bertin Technologies, Montigny-le-Bretonneux, France) set at high speed, allowed to stand for 15 minutes at 4° C., and centrifuged at 15,000 rpm for 30 minutes. Soluble Aβ1-40/42 species and sAPPα were directly detected in cultured cell media or brain homogenates using the Aβ1-40/42 (Invitrogen) and sAPPα ELISA kits (IBL-America, Minneapolis, Minn., USA).
(§3) To further examine the ability of the Swedish mutant APP BACE1 binding peptide/Tat fusion peptides to decrease Aβ production, CHO cells overexpressing either human wild-type APP (CHO/APPwt cells) or Swedish mutant APP (hereinafter referred to as “CHO/APPswe cells”) are treated with a variety of APP-based BACE1 inhibitor peptides, as shown in Table 1 and Table 2. Aβ production is determined using ELISA.

[4] = system: CHO cells over-expressing human Swedish mutant APP (CHO/APPswe); experiment: Aβ and sAPPα production in cultured media of CHO/APPswe cells by ELISA; assay type: cell-based, Chinese hamster; conditions: 20 μg/mL, 24 hours
Procedure: as §1
To confirm the binding of APPsweBBP with BACE1, CHO/APPwt cells were plated in 8-well chambers (5×10^5/well), incubated with TAT-APPsweBBP-biotin or APPsweBBP-biotin at 20 μM for 30 minutes, fixed with 4% paraformaldehyde for 20 minutes, washed and permeabilized with 0.5% Triton X-100. Following application of blocking buffer, these cells were stained with mouse anti-BACE1 and rabbit anti-biotin antibodies overnight at 4° C. for immunocytochemistry analysis. In order to determine the inhibitory effects of TAT-APPsweBBP on BACE1-mediated APP β-cleavage and subsequent Aβ production, both CHO/APPwt and CHO/APPswe cells were plated in 24 well-plates (3×10^5/well) and treated with TAT-APPsweBBP at 0-20 μM for 24 hours. The cultured media were collected for Aβ analysis by enzyme-linked immunosorbent assay (ELISA) and sAPPα analysis by ELISA and Western blot (WB). Cell lysates were also prepared for analysis of APP amyloidogenic processing by WB.
as §2, §3

CHO/APPwt cells = experiment: Aβ production in CHO/APPwt cells by ELISA (Example 1, 4 hours); assay type: cell-based, Chinese hamster; conditions: 20 μg/mL
Procedure: To examine the effects of various Swedish Tat fusion peptides on Aβ production, human wild-type amyloid precursor protein (APP) is overexpressed in Chinese hamster ovary cells (hereinafter referred to as CHO/APPwt cells), and the cells are treated with either PBS control (Phosphate buffered saline); Swedish peptide-1 (SwePep-1), […] (also referred herein as “APPsweBBP1”) (SEQ ID NO: 5); Swedish peptide-2 (SwePep-2) (also referred herein as “APPsweBBP”), […] (SEQ ID NO: 1); Swedish Tat fusion peptide-1 (SweTatPep-1), […] (also referred herein as “APPsweBBP/TTD1”) (SEQ ID NO: 6); or Swedish Tat fusion peptide-2 (SweTatPep-2) (also referred herein as “APPsweBBP/TTD2” and “TAT-APPsweBBP”), […] (SEQ ID NO: 3). APPsweBBP is a truncated fragment of APPswe spanning 12 amino acid residues (Glu665-Arg676). TAT, an 11-amino acid-residue protein-transduction domain derived from the HIV-1 transactivator of transcription protein, was conjugated at the C-terminus of APPsweBBP and biotin was conjugated at the N-terminus.
Following treatment, Aβ production is determined utilizing ELISA and the results illustrated in FIG. 1A. SweTatPep-2, SwePep-2, SwePep-1 and SweTatPep-1 each reduce Aβ40,42 by 63-65%, 30-33%, 31-34% and 37-38%, respectively.

BACE1 [5] = target: T1, BACE1; design: purchased Pan Vera Co., Madison, Wis., USA; conditions: phase II clinical trial suspended June 2013; cited from earlier work

T1 sequence (P56817 46-501): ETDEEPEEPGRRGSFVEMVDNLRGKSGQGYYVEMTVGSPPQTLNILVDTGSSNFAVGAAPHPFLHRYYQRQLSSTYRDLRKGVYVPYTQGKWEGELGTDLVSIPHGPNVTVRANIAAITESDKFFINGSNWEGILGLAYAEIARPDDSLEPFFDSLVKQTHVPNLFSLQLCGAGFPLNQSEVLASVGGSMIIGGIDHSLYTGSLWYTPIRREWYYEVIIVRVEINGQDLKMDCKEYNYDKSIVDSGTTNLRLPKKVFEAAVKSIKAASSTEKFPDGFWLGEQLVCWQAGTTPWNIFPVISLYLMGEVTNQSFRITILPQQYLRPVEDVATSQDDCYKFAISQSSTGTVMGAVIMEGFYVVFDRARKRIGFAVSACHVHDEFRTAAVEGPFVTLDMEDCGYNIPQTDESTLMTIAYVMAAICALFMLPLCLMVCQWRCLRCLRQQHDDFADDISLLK

Compound | Secreted Aβ40 (ng/mg; mean ± SD) [3] [ng/mg] | Secreted Aβ42 (ng/mg; mean ± SD) [3] [ng/mg] | Secreted sAPPα (ng/mg; mean ± SD) [3] [ng/mg] | Secreted Aβ40 (ng/mg; mean ± SD) [4] [ng/mg] | Secreted Aβ42 (ng/mg; mean ± SD) [4] [ng/mg] | Secreted sAPPα (ng/mg; mean ± SD) [4] [ng/mg] | reduction of Aβ40,42 (CHO/APPwt cells) | other results
CC(C)[C@H](O)C(=O)N[C@@H](C)C(=O)N[C@@H]1C(=O)N(C)CCc2ccccc21 [semagacestat] | – | – | – | – | – | – | – | activities of daily living and cognition in treated patients (γ-secretase): worsened
YGRKKRRQRRREISEVNLDAEFR [APPsweBBP/TTD2] | – | – | – | – | – | – | – | BBB penetration [1]: highly penetrated the BBB; total Akt, phosphorylated Akt and MBP expression levels in brain homogenates (5XFAD mice): did not differ; % of inhibition (mean ± SD) of BACE1 (BACE1 [2]; listed as TAT-APPswe^bBBP): 93.23 ± 2.73%; inhibition at 20 µM (BACE1 [2]; read-out: % of inhibition (mean ± SD) of BACE1, peptide final concentration 20 μM, 90 minutes, room temperature): > 90%
IKTEEISEVNLDAEFR (listed as Homo sapiens) [APPsweBBP1] | 9.67 ± 0.84 | 1.07 ± 0.054 | 4711.83 ± 201.45 | 57.23 ± 11.65 | 9.01 ± 1.07 | 211.43 ± 18.31 | 31-34% | –
EISEVNLDAEFR (listed as Homo sapiens) [APPsweBBP2] | 7.01 ± 1.02 | 0.73 ± 0.034 | 5201.64 ± 119.63 | 41.41 ± 8.43 | 6.54 ± 0.85 | 253.56 ± 20.11 | 30-33% | % of inhibition (mean ± SD) of BACE1 (BACE1 [2]): ~40% and 38.43%
YGRKKRRQRRRIKTEEISEVNLDAEFR (human-virus fusion) [APPsweBBP/TTD1] | 8.93 ± 0.82 | 0.95 ± 0.037 | 4901.54 ± 211.54 | – | 7.98 ± 0.81 | 236.32 ± 13.09 | 37-38% | –
NC1=N[C@@]2(c3cc(NC(=O)c4ccc(F)cn4)ccc3F)COC[C@H]2CS1 [LY2886721] | – | – | – | – | – | – | – | reason for trial suspension (BACE1 [5]): possible liver toxicity
